Data from US5424394A, “Synthetic preparation of amylin and amylin analogues” (priority 1993, dated 1995).
Read-outs that look alike come from different tables or passages of the source. Ends that are not written are not given here.

Tested on: isolated rat soleus muscle
Experiment: insulin-stimulated incorporation of labelled glucose into glycogen in isolated rat soleus muscle (soleus muscle assay)
Format: cell-based
Source text: According to the present invention, we have developed methods for the efficient synthesis of amylin and amylin analogs which result in peptides of high purity which are substantially free of deletion peptides and other contaminating peptides and which show reproducibly high biological activity as measured by assays of its ability to cause resistance to insulin in vitro by inhibiting insulin-stimulated incorporation of labelled glucose into glycogen in isolated rat soleus muscle.
The present invention also provides synthetic human amylin produced by solid phase peptide synthesis which has an EC50 of about 2.5 nanomoles/liter±0.3 log units or less according to an assay of insulin-stimulated incorporation of labelled glucose into glycogen in isolated rat soleus muscle. In an especially preferred aspect, such synthetic human amylin is substantially free of deletion and other contaminating peptides. […]

EC50 (peptide at least about 95% pure after preparative RP-HPLC, read-out: EC50 as measured by soleus muscle assay): < 5 nM | EC50 (±0.3 log units, inhibition of insulin-stimulated glycogen synthesis, read-out: EC50 according to an assay of insulin-stimulated incorporation of labelled glucose into glycogen in isolated rat soleus muscle): ≤ 2.5 nM
Substance: Human Amylin (KCNTATCATQRLANFLVHSSNNFGAILSSTNVGSNTY-NH2; cysteine pairing not given here; UniProt P10997 34-70, looked up) [37-amino acid peptide with internal disulfide bond and C-terminal amide, made by solid phase peptide synthesis]
